From US7598291B2, “Methods and compositions for enhancing collagen and proteoglycan synthesis in the skin” (priority 2004, dated 2009)

Key:
rat hepatocytes = conditions: older rats, 2-week dietary supplementation prior to hepatocyte isolation; cited from earlier work
lipid peroxidation = conditions: old rats, diet supplemented with lipoic acid; cited from earlier work
skin fibroblasts [1] = assay: Collagen synthesis in vitro (radioproline incorporation) in skin fibroblasts; format: cell-based, human; conditions: lipoic acid 0 to 5 μg/ml (FIG. 5), proanthocyanidin vs control (FIG. 6)
Description: Rat skin fibroblasts and NIH 3T3 cells were used to measure collagen synthesis in vitro. Cells at a density of 100×10^3 in 24-well-plates were grown with 10% FBS/DMEM (Irvine Scientific, CA) supplemented with different doses of lipoic acid (0-16 μg/ml). Cells were incubated at 37° C. in a 5% CO2 environment for 24 hours. Medium was changed into labeling medium for another 24 hours (50 μCi/ml [^3H]proline, 25 μg/ml ascorbic acid, 25 μg/ml β-aminoproprionitrile (β-APN)). Collagen synthesis from cultured cells was assayed as previously described (B. Han et al. (2003), supra). Briefly, cells and medium were acidified with glacial acetic acid to a final concentration of 0.5 M and pepsin (Worthington) added to a final concentration of 0.5 mg/ml. Plates were shaken overnight at 4° C., collagen precipitated with 4.0 M NaCl and pellets washed with 20% cold ethanol 3 times. Pellets were dissolved with 0.5 M acetic acid and counted with a scintillation counter (Beckman)

[2] = topical application, hairless mice; reduced in the process to dihydrolipoic acid; cited from earlier work
skin fibroblasts [3] = assay: Cell proliferation assay (thymidine incorporation); format: cell-based, human; conditions: vs control; FIG. 6
Description: NIH 3T3 fibroblasts were cultured in DMEM containing 10% fetal bovine serum in 24-well plates at a density of 80×10^3. After overnight attachment, medium was changed to a conditioning medium with different dosages of lipoic acid (20 ng-20 μg). DNA content was assayed after 48 hours in culture. Briefly, cells were trypsinized with 0.25% trypsin-EDTA and pelleted by centrifugation. To the cell pellet, 1.5 ml of cold 10 mM EDTA (pH 12.3) was added to solubilize cells. After neutralizing with 1.0 M KH2PO4 (140 μl) and mixing with 0.5 ml of 100 mM NaCl/10 mM Tris (pH 7.0), 10 μl of 66.7 μg/ml Hoechst 33258 (Sigma) was added to give fluorescent readings at emissions of 350 nm and 450 nm. Cell numbers were obtained by comparing the reading to a standard curve of cellular DNA (1×10^4 to 1×10^6 fibroblast). [^3H]Thymidine incorporation into DNA was performed as previously described (B. Han et al., “Proanthocyanidin: A Natural Crosslinking Reagent for Stabilizing Collagen Matrices,” J. Biomed. Mater. Res. 65A: 118-24 (2003)).

Compound | age-associated effects on ascorbic acid metabolism (rat hepatocytes) | levels of malondialdehyde, an indicator of lipid peroxidation (lipid peroxidation) | collagen synthesis in vitro (incorporation of radioproline) (skin fibroblasts [1]) | penetration across the skin barrier [2] | cellular proliferation (incorporation of thymidine) (skin fibroblasts [3])
O=C(O)CCCC[C@@H]1CCSS1 (stereo in doubt) [lipoic acid, 1,2-dithiolane-3-pentanoic acid] | almost completely reversed | reduced | increased | – | –
O=C(O)CCCC[C@@H]1CCSS1 (racemic) [lipoic acid, 1,2-dithiolane-3-pentanoic acid] | – | – | – | effectively penetrate across the skin barrier | –
proanthocyanidin | – | – | increased | – | increase in cellular proliferation
